From PubChem BioAssay (NCI) come the findings set out here.

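Test compounds were applied to cells in 96-well plates for 48 hours at 5 doses. Here, GI50 denotes the concentration required for 50% inhibition of growth. TGI is the concentration that stops growth completely.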 Bounds are passed on as bounds.

Test systems include UACC-62 melanoma; NCI-H226 lung; NCI-H460 lung; A549 NSCLC; TK-10 renal; SF-295 CNS; UACC-257 melanoma; ACHN renal; SF-539 CNS; HCT-116 colon.
Assay in all cases: NCI tumour cell line growth inhibition, 48 h

On to `O=C(N/N=C/c1cc(Br)cc(Br)c1[O-])c1ccccc1O.O=C(N/N=C/c1cc(Br)cc(Br)c1[O-])c1ccccc1O.[Cl-].[Fe+3]`, for which the TGI in the experiment with UACC-62 melanoma is 7.99 µM; in the experiment with NCI-H226 lung, 4.97 µM; in the experiment with NCI-H460 lung it was 17.7 µM; in the experiment with A549 NSCLC it was 36.8 µM; in the experiment on TK-10 renal it was 20 µM; with SF-295 CNS it was 5.98 µM. The TGI with UACC-257 melanoma is 29.3 µM; in the experiment with ACHN renal, 18.3 µM; in the experiment on SF-539 CNS, 5.35 µM; in the experiment with HCT-116 colon, 10.2 µM.

With `CCOC(=O)C1=C(C)N2CCCOC2(C)C(C(=O)OC)C1c1cccc([N+](=O)[O-])c1` (stereo not drawn), the TGI in the experiment on UACC-62 melanoma, with NCI-H226 lung, with NCI-H460 lung, in the experiment on A549 NSCLC, in the experiment with TK-10 renal and in the experiment with SF-295 CNS was more than 100 µM each time. Further, the TGI with UACC-257 melanoma, in the experiment on ACHN renal, in the experiment with SF-539 CNS and in the experiment on HCT-116 colon was more than 100 µM in each case.

Consider `C#CCCCCC#CC1CCCC1C1=CC(=O)c2ccccc21` (stereo not drawn), for which the TGI with UACC-62 melanoma stood at 6.44 µM; with NCI-H226 lung, 29.8 µM; in the experiment with NCI-H460 lung, 32.5 µM; in the experiment with A549 NSCLC it was 30 µM; in the experiment with TK-10 renal, 34.5 µM; with SF-295 CNS it was 16.8 µM. The TGI turned out to be 25.2 µM in the experiment with UACC-257 melanoma, 19.9 µM with ACHN renal, 21.1 µM in the experiment with SF-539 CNS and 2.91 µM in the experiment on HCT-116 colon.

Consider `CC(=O)O[C@H]1CC[C@]2(C)[C@H]3C(=O)C=C4[C@@H]5C[C@](C)(C(=O)N6CCCNCC6)CC[C@]5(C)CC[C@@]4(C)[C@]3(C)CC[C@H]2C1(C)C`, for which the GI50 in the experiment with UACC-62 melanoma is 1690 nM; with NCI-H460 lung it was 1580 nM; in the experiment on A549 NSCLC, 1820 nM; in the experiment on TK-10 renal, 1770 nM; in the experiment on SF-295 CNS it was 1760 nM; with UACC-257 melanoma it was 1980 nM. Also, the results for the GI50 in the experiment on ACHN renal and in the experiment with SF-539 CNS were 1660 nM and 1620 nM, respectively. In addition, the TGI in the experiment with UACC-62 melanoma worked out at 3.13 µM; in the experiment on NCI-H460 lung it was 3.11 µM; with A549 NSCLC it was 4.67 µM; in the experiment with TK-10 renal it was 3.45 µM; in the experiment on SF-295 CNS it was 3.2 µM; in the experiment on UACC-257 melanoma it was 4.26 µM. The figures for the TGI with ACHN renal and in the experiment on SF-539 CNS were 3.02 µM and 3 µM, respectively.

For `CCCNCC(O)/C=C/[Si](C)(C)C` (stereo not drawn) (tested in a mixture with another compound), the TGI in the experiment with UACC-62 melanoma, in the experiment with NCI-H460 lung, with A549 NSCLC, with TK-10 renal, in the experiment with SF-295 CNS and with UACC-257 melanoma was more than 100 µM each time. Further, the TGI with ACHN renal, in the experiment on SF-539 CNS and in the experiment on HCT-116 colon was more than 100 µM throughout.

Take `CC1(C)[C@@H]2C[C@H]1C(Cc1ccccc1C[C@H]1c3cc(-c4ccccn4)ncc3[C@H]3C[C@@H]1C3(C)C)c1cc(-c3ccccn3)ncc12` (stereo partly drawn): the TGI is 4.15 µM in the experiment with UACC-62 melanoma; more than 31.9 µM with NCI-H460 lung; more than 100 µM in the experiment on A549 NSCLC; more than 78.7 µM with TK-10 renal; more than 55.1 µM with SF-295 CNS; 4.83 µM in the experiment on ACHN renal. In addition, the TGI in the experiment with SF-539 CNS is 8.42 µM; in the experiment on HCT-116 colon, 10.1 µM.

As for `N=C(N)SC1c2ccccc2-c2cc([N+](=O)[O-])ccc21` (stereo not drawn), the TGI with UACC-62 melanoma amounted to 10.1 µM; in the experiment with NCI-H226 lung, 21 µM; with NCI-H460 lung, 17.2 µM; in the experiment on A549 NSCLC it was 19.4 µM; in the experiment with TK-10 renal it was 21.3 µM; in the experiment with SF-295 CNS, 15.7 µM. For the same compound, the TGI in the experiment with UACC-257 melanoma came to 20.9 µM; in the experiment on ACHN renal, 18.9 µM; in the experiment with SF-539 CNS, 13.7 µM; in the experiment with HCT-116 colon, 16.3 µM.

On to `CN(C)CCNc1ccc2nnn3c4ccc(Cl)cc4c(=O)c1c23`, for which the TGI with UACC-62 melanoma came to 18.6 µM; in the experiment with NCI-H226 lung, 5.31 µM; in the experiment with NCI-H460 lung, 14.8 µM; in the experiment with A549 NSCLC, 14.1 µM; in the experiment on TK-10 renal, 22.1 µM; with SF-295 CNS it was 15.7 µM. Moreover, the TGI was 17.5 µM in the experiment on UACC-257 melanoma, 12.3 µM with ACHN renal, 16.2 µM with SF-539 CNS and 14.6 µM with HCT-116 colon.

Turning to `CN[C@@H]1[C@H](O)[C@H](NC)[C@H]2O[C@@]3(O)C(=O)C[C@@H](C)O[C@H]3O[C@@H]2[C@H]1O`, the TGI with UACC-62 melanoma, with NCI-H226 lung, with NCI-H460 lung, in the experiment on SF-295 CNS, with UACC-257 melanoma and with ACHN renal was more than 100 µM in each case. Further, the TGI with SF-539 CNS and in the experiment on HCT-116 colon was more than 100 µM throughout.

As for `C[n+]1ccccc1/C=C/c1ccc2c(c1)OCO2`, the TGI with UACC-62 melanoma, in the experiment on NCI-H226 lung, with NCI-H460 lung, in the experiment on A549 NSCLC, in the experiment with TK-10 renal and in the experiment on SF-295 CNS was more than 10 µM throughout. Besides, the TGI in the experiment on UACC-257 melanoma, in the experiment with ACHN renal, with SF-539 CNS and in the experiment with HCT-116 colon was more than 10 µM each time.

On to `O=[N+]([O-])/C=C/c1cccc(F)c1`, for which the TGI is 22.5 µM in the experiment with UACC-62 melanoma; 6.05 µM in the experiment with NCI-H226 lung; 30.4 µM in the experiment with NCI-H460 lung; more than 100 µM with A549 NSCLC; 14.3 µM in the experiment on TK-10 renal; 30.2 µM in the experiment with SF-295 CNS. In addition, the TGI stood at 15.8 µM in the experiment with UACC-257 melanoma, 6.84 µM in the experiment with ACHN renal, 20.8 µM with SF-539 CNS and 8.86 µM with HCT-116 colon.

Turning to `CCCCCCc1ccc(O)cc1O`, the TGI in the experiment with UACC-62 melanoma was more than 79.1 µM; in the experiment with NCI-H226 lung, more than 100 µM; in the experiment on NCI-H460 lung, more than 100 µM; in the experiment on A549 NSCLC it was more than 100 µM; in the experiment with SF-295 CNS it was more than 100 µM; in the experiment on UACC-257 melanoma, more than 85.1 µM. The TGI in the experiment on SF-539 CNS and in the experiment with HCT-116 colon was more than 100 µM each time.

In the case of `COc1cc2c(cc1OC)C(C1(O)CCCCC1)NCC2` (stereo not drawn), the TGI with UACC-62 melanoma, in the experiment on NCI-H226 lung, with NCI-H460 lung, in the experiment with TK-10 renal, in the experiment on SF-295 CNS and in the experiment with UACC-257 melanoma was more than 100 µM throughout. Moreover, the TGI with ACHN renal and in the experiment with HCT-116 colon was more than 100 µM throughout.

On to `COc1cc2c(cc1O)CCN[C@@]21CS[C@H]2c3c(OC(C)=O)c(C)c4c(c3C(COC1=O)N1C2C2c3c(cc(C)c(OC)c3O)CC([C@@H]1O)N2C)OCO4` (stereo partly drawn), for which the figures for the GI50 with NCI-H226 lung, in the experiment on SF-295 CNS and with HCT-116 colon were less than 1 pM, 0.788 nM and 3.05 nM, respectively. Also, the TGI with NCI-H226 lung is less than 1e-06 µM; in the experiment with SF-295 CNS, 0.0277 µM; in the experiment on ACHN renal, 0.0012 µM; in the experiment on HCT-116 colon, more than 0.525 µM.

For the compound `NC(Cc1ccc2oc3cc(=O)c4ccccc4c-3nc2c1)C(=O)O` (stereo not drawn), the TGI with UACC-62 melanoma is 22.5 µM; in the experiment with NCI-H226 lung, 73.1 µM; in the experiment with NCI-H460 lung, 32 µM; in the experiment with A549 NSCLC, 62.5 µM; with TK-10 renal, more than 97.2 µM; in the experiment with SF-295 CNS, 55.5 µM. The TGI in the experiment with UACC-257 melanoma is 39.3 µM; in the experiment on ACHN renal it was more than 100 µM; in the experiment on SF-539 CNS it was 54.6 µM; in the experiment with HCT-116 colon, 76.8 µM.

As to `Cc1c(Cl)c(S(N)(=O)=O)cc(S(N)(=O)=O)c1NC(=O)c1ccc(Cl)cc1`, the TGI in the experiment with UACC-62 melanoma, in the experiment with NCI-H226 lung, with NCI-H460 lung, in the experiment with A549 NSCLC, in the experiment on TK-10 renal and in the experiment on SF-295 CNS was more than 100 µM each time. For the same compound, the TGI in the experiment with UACC-257 melanoma, in the experiment on ACHN renal and in the experiment on HCT-116 colon was more than 100 µM each time.
